Here are results for nine compounds from PubChem BioAssay (NCI).

Among the test systems are UACC-257 melanoma; MDA-MB-231 breast; SNB-19 CNS; SK-OV-3 ovarian; UO-31 renal; SK-MEL-2 melanoma; HCT-15 colon; 786-0 renal; M14 melanoma; UACC-62 melanoma; SN12C renal; MOLT-4 leukemia; BT-549 breast; RPMI-8226 leukemia; SK-MEL-5 melanoma; HOP-92 NSCLC; HOP-62 NSCLC; OVCAR-4 ovarian; T-47D breast.
Common to all, as to assay: inhibition of tumour cell growth, NCI panel, 48 h

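Five concentrations, 48 hours, 96-well plates. At the TGI there is no net growth.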

For `CCOc1ccc(NC(=O)/C=C/c2ccco2)cc1`, the TGI in the assay with UACC-257 melanoma, with MDA-MB-231 breast, with SNB-19 CNS, in the assay on SK-OV-3 ovarian, in the assay with UO-31 renal and with SK-MEL-2 melanoma was greater than 100 µM in each case. The TGI in the assay with HCT-15 colon, in the assay on 786-0 renal, in the assay on M14 melanoma, with UACC-62 melanoma, in the assay with SN12C renal and with MOLT-4 leukemia was greater than 100 µM in each case. Moreover, the TGI in the assay on BT-549 breast, with RPMI-8226 leukemia and in the assay on SK-MEL-5 melanoma was greater than 100 µM in each case.

For `c1ccc(Nc2nnc(-c3ccccc3Nc3ccccc3-c3nnc(Nc4ccccc4)s3)s2)cc1`, the TGI in the assay with UACC-257 melanoma, in the assay on HOP-92 NSCLC, in the assay with HOP-62 NSCLC, with SNB-19 CNS, with OVCAR-4 ovarian and in the assay on UO-31 renal was greater than 100 µM each time. The TGI in the assay on SK-MEL-2 melanoma, in the assay on HCT-15 colon, in the assay on 786-0 renal, in the assay on M14 melanoma, with UACC-62 melanoma and with MOLT-4 leukemia was greater than 100 µM in each case. Further, the TGI in the assay with BT-549 breast and in the assay on SK-MEL-5 melanoma was greater than 100 µM each time.

Turning to `O=C1/C(=C/c2ccc([N+](=O)[O-])cc2)Oc2cc(O)ccc21`, the TGI in the assay with UACC-257 melanoma was greater than 100 µM; in the assay with MDA-MB-231 breast, 73.9 µM; with HOP-62 NSCLC, greater than 100 µM; with SNB-19 CNS, greater than 100 µM; with SK-OV-3 ovarian, 71.6 µM; with OVCAR-4 ovarian, greater than 100 µM. In addition, the TGI in the assay with UO-31 renal is 51 µM; in the assay with HCT-15 colon, 69.1 µM; with 786-0 renal, 70.6 µM; with M14 melanoma it was greater than 100 µM; in the assay with UACC-62 melanoma, greater than 100 µM; in the assay on T-47D breast, greater than 100 µM. The TGI was found to be 87.1 µM in the assay on SN12C renal; 44.4 µM in the assay with MOLT-4 leukemia; 78.7 µM in the assay with BT-549 breast; 65.8 µM in the assay with RPMI-8226 leukemia; 48 µM in the assay with SK-MEL-5 melanoma.

Take `NC(N)=N/N=C/c1c(Cl)nc2n1CCS2`: the TGI with UACC-257 melanoma, in the assay on HOP-92 NSCLC, in the assay with HOP-62 NSCLC, with SNB-19 CNS, in the assay on SK-OV-3 ovarian and in the assay with OVCAR-4 ovarian was greater than 100 µM in each case. Also, the TGI with UO-31 renal, with SK-MEL-2 melanoma, in the assay on HCT-15 colon, with 786-0 renal, with M14 melanoma and with UACC-62 melanoma was greater than 100 µM in each case. The TGI in the assay on T-47D breast, in the assay on SN12C renal, with MOLT-4 leukemia, in the assay on BT-549 breast and with RPMI-8226 leukemia was greater than 100 µM throughout.

Consider `CC1(C)COC(c2cccc(C(=O)c3ccccc3)c2)=N1`, for which the TGI in the assay with UACC-257 melanoma, in the assay on MDA-MB-231 breast, in the assay with HOP-92 NSCLC, in the assay on HOP-62 NSCLC, in the assay on SNB-19 CNS and in the assay on SK-OV-3 ovarian was greater than 100 µM throughout. The TGI in the assay with OVCAR-4 ovarian, with UO-31 renal, with SK-MEL-2 melanoma, in the assay with HCT-15 colon, in the assay with 786-0 renal and with UACC-62 melanoma was greater than 100 µM throughout. Besides, the TGI in the assay with T-47D breast was greater than 100 µM; in the assay with SN12C renal it was greater than 100 µM; with MOLT-4 leukemia, 75.9 µM; in the assay on RPMI-8226 leukemia, greater than 100 µM; in the assay on SK-MEL-5 melanoma, 32.1 µM.

`CCOC(=O)C1Cc2ccc(C)cc2C1=O` (stereo not given): the TGI in the assay with UACC-257 melanoma, with MDA-MB-231 breast, in the assay on HOP-92 NSCLC, with HOP-62 NSCLC, in the assay with SK-OV-3 ovarian and in the assay on OVCAR-4 ovarian was greater than 100 µM each time. The TGI in the assay on UO-31 renal, in the assay on SK-MEL-2 melanoma, with HCT-15 colon, in the assay with 786-0 renal, in the assay with M14 melanoma and in the assay with UACC-62 melanoma was greater than 100 µM in each case. Besides, the TGI in the assay with T-47D breast, in the assay on SN12C renal, in the assay with MOLT-4 leukemia, in the assay with RPMI-8226 leukemia and with SK-MEL-5 melanoma was greater than 100 µM in each case.

As to `O=[N+]([O-])/C(C(Cl)=C(Cl)Cl)=C(\NCc1ccccc1)Sc1ccccc1`, the TGI in the assay with UACC-257 melanoma was greater than 100 µM; in the assay on MDA-MB-231 breast it was greater than 100 µM; in the assay on HOP-62 NSCLC, 57.1 µM; in the assay with SNB-19 CNS, greater than 100 µM; with SK-OV-3 ovarian, greater than 100 µM; in the assay on OVCAR-4 ovarian, 75.4 µM. In addition, the TGI in the assay on UO-31 renal is 38.3 µM; in the assay on SK-MEL-2 melanoma, 84.7 µM; in the assay on HCT-15 colon, 35 µM; in the assay on 786-0 renal it was greater than 100 µM; in the assay with M14 melanoma it was greater than 100 µM; in the assay on UACC-62 melanoma, greater than 100 µM. Also, the TGI is 71.7 µM in the assay on T-47D breast; greater than 100 µM in the assay with SN12C renal; greater than 100 µM in the assay on MOLT-4 leukemia; 38.7 µM in the assay on BT-549 breast; greater than 100 µM in the assay on RPMI-8226 leukemia.

As for `CN1CC[C@@]2(c3cccc(O)c3)CC(=O)/C(=C/c3ccc(Cl)c(Cl)c3)[C@H]1C2`, the TGI stood at 12.6 µM in the assay with UACC-257 melanoma; 18.1 µM in the assay on HOP-92 NSCLC; 6.2 µM with HOP-62 NSCLC; 12.5 µM with SNB-19 CNS; 17.2 µM with OVCAR-4 ovarian; 4.33 µM with UO-31 renal. The TGI worked out at 3.77 µM with HCT-15 colon; 3.07 µM with 786-0 renal; 5.02 µM in the assay on M14 melanoma; 3.89 µM in the assay on SN12C renal; 8.47 µM in the assay with MOLT-4 leukemia; 4.33 µM with BT-549 breast. The TGI amounted to 4.37 µM in the assay with RPMI-8226 leukemia and 5.53 µM in the assay with SK-MEL-5 melanoma.

Consider `CC(=O)/C=C1/C(=O)C(CC(C)C)=C1CC(C)C`, for which the TGI with UACC-257 melanoma, in the assay with MDA-MB-231 breast, in the assay on HOP-92 NSCLC, in the assay with HOP-62 NSCLC, in the assay on SNB-19 CNS and with SK-OV-3 ovarian was greater than 100 µM throughout. Further, the TGI in the assay on OVCAR-4 ovarian, in the assay on UO-31 renal, in the assay on SK-MEL-2 melanoma, in the assay with HCT-15 colon, in the assay on 786-0 renal and in the assay with M14 melanoma was greater than 100 µM each time. For the same compound, the TGI in the assay with UACC-62 melanoma, in the assay with T-47D breast, with SN12C renal, with MOLT-4 leukemia and in the assay on SK-MEL-5 melanoma was greater than 100 µM throughout.
